Reference: patent publication US12568967B2, “Compositions comprising pyridine carboxylate herbicides with synthetic auxin herbicides or auxin transport inhibitors” (priority 2018, dated 2026)
Like-named read-outs stand apart in the source and are kept apart here.

Tests used:
[1] = test system: Galium aparine (cleavers, GALAP); test: Greenhouse postemergence trial GALAP; type: in vivo; conditions: c1-3 Compound A 7.5/10/15; c4-6 Clopyralid 30/60/120; c7-9, c10-12, c13-15 A 7.5/10/15 + Clopyralid 30, 60, 120 g/ha
Protocol: (§1) Seeds of the desired test plant species were planted in a 90:10% v/v (volume/volume) mixture of PRO-MIX® BX (Premier Tech Horticulture, Quakertown, PA, USA) and PROFILE® GREENS GRADE™ (Profile Products LLC, Buffalo Grove, IL, USA) planting mixture, which typically has a pH of 5.2 to 6.2 and an organic matter content of at least 50 percent, in plastic pots with a surface area of 103.2 square centimeters (cm^2). […] The plants were grown for 7-36 days (d) in a greenhouse with an approximate 14-hour (h) photo-period which was maintained at about 23° C. during the day and 22° C. during the night. Nutrients and water were added on a regular basis and supplemental lighting was provided with overhead metal halide 1000-Watt lamps as necessary. The plants were employed for testing when they reached the second or third true leaf stage.
(§2) Emulsifiable concentrates of each of each pyridine carboxylate herbicide (Compound A or Compound B) were prepared at 100 grams acid equivalent per liter (g ae/L). The emulsifiable concentrates also included a safener, cloquintocet-mexyl, at 120 grams active ingredient per liter (g ai/L), unless otherwise noted below. An aliquot of each emulsifiable concentrate was placed in a 25 mL glass vial and diluted with an aqueous mixture of 1.25% (v/v) ACTIROB® B esterified rapeseed oil (Bayer Crop Science, Research Triangle Park, NC, USA) or MSO® Concentrate with LECI-TECH® methylated soybean oil (Loveland Products, Loveland, CO, USA) to obtain concentrated stock solutions at the highest application rate for each herbicide, based upon a 12 milliliter (mL) application volume at a rate of 187 liters per hectare (L/ha). The concentrated stock solutions were further diluted with an aqueous mixture of 1.25% v/v ACTIROB® B or MSO® Concentrate with LECI-TECH® to obtain stock solutions at reduced application rates for each herbicide. Spray solutions of the herbicide combinations (Compound A or Compound B plus synthetic auxin herbicide or auxin transport inhibitor) were prepared by adding weighed amounts or aliquots of the synthetic auxin herbicide or auxin transport inhibitor to the stock solutions of Compound A or Compound B to form 12-mL spray solutions in two-way combinations.
(§3) The spray solutions were applied to the plant material with an overhead Mandel track sprayer equipped with 8002E nozzles calibrated to deliver 187 L/ha over an application area of 0.503 square meters (m^2) at a spray height of 18 inches (43 centimeters (cm)) above the average plant canopy. Control plants were sprayed in the same manner with the solvent blank. All pyridine carboxylate herbicide (component a) application rates are given as “g ae/ha” and all synthetic auxin herbicide or auxin transport inhibitor (component b) application rates are given as “g ai/ha.”
(§4) The treated plants and control plants were placed in a greenhouse as described above and watered by sub-irrigation to prevent wash-off of the test compounds. After 20-22 d, the condition of the test plants as compared with that of the control plants was determined visually and scored on a scale of 0 to 100 percent where 0 corresponds to no injury and 100 corresponds to complete kill.

[2] = test system: Veronica hederifolia (ivyleaf speedwell, VERHE); test: Greenhouse postemergence trial VERHE; type: in vivo
[3] = test system: Papaver rhoeas (corn poppy, PAPRH); test: Greenhouse postemergence trial PAPRH; type: in vivo; conditions: c1-3 Compound A 7.5/10/15; c4-6 Clopyralid 30/60/120; c7-9, c10-12, c13-15 A 7.5/10/15 + Clopyralid 30, 60, 120 g/ha
[4] = test system: Papaver rhoeas (corn poppy), herbicide-resistant (PAPRH-R); test: Greenhouse postemergence trial PAPRH-R; type: in vivo
[5] = test system: Capsella bursa-pastoris (shepherd's purse, CAPBP); test: Greenhouse postemergence trial CAPBP; type: in vivo; conditions: c1-3 Compound A 7.5/10/15; c4-6 Clopyralid 30/60/120; c7-9, c10-12, c13-15 A 7.5/10/15 + Clopyralid 30, 60, 120 g/ha
[6] = test system: Stellaria media (chickweed, STEME); test: Greenhouse postemergence trial STEME; type: in vivo
[7] = test system: Matricaria inodora (false chamomile, MATIN); test: Greenhouse postemergence trial MATIN; type: in vivo; conditions: c1-3 Compound A 7.5/10/15; c4-6 Clopyralid 30/60/120; c7-9, c10-12, c13-15 A 7.5/10/15 + Clopyralid 30, 60, 120 g/ha
Protocol: as §1, §2, §3, §4

[8] = test system: Lamium purpureum (purple deadnettle, LAMPU); test: Greenhouse postemergence trial LAMPU; conditions: c1-3 Compound A 7.5/10/15; c4-6 Clopyralid 30/60/120; c7-9, c10-12, c13-15 A 7.5/10/15 + Clopyralid 30, 60, 120 g/ha
[9] = test system: Viola tricolor (wild pansy, VIOTR); test: Greenhouse postemergence trial VIOTR;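 further: greenhouse plants sprayed at second to third true leaf stage, injury rated visually after 20-22 d against solvent-blank sprayed controls, 0 meaning no injury and 100 complete kill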
[10] = test system: Brassica napus (winter rape, BRSNW); test: Greenhouse postemergence trial BRSNW; type: in vivo
[11] = test system: Polygonum convolvulus (wild buckwheat, POLCO); test: Greenhouse postemergence trial POLCO; type: in vivo
Protocol: as §1, §2, §3, §4

[12] = test system: Cirsium arvense (Canadian thistle, CIRAR); test: Greenhouse postemergence trial CIRAR; type: in vivo
[13] = test system: Kochia scoparia (kochia, KCHSC); test: Greenhouse postemergence trial KCHSC; type: in vivo
Protocol: as §1, §2, §3, §4

[14] = test system: Chenopodium album L. (common lambsquarters, CHEAL); test: Greenhouse postemergence trial CHEAL; type: in vivo;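 further: greenhouse plants sprayed at second to third true leaf stage, injury rated by eye after 20-22 d versus solvent-blank sprayed controls, 0 = no injury, 100 = complete kill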
Protocol: (§5) The plants were grown for 7-36 days (d) in a greenhouse with an approximate 14-hour (h) photo-period which was maintained at about 23° C. during the day and 22° C. during the night. Nutrients and water were added on a regular basis and supplemental lighting was provided with overhead metal halide 1000-Watt lamps as necessary. The plants were employed for testing when they reached the second or third true leaf stage.
(§6) The emulsifiable concentrates also included a safener, cloquintocet-mexyl, at 120 grams active ingredient per liter (g ai/L), unless otherwise noted below.
(§7) Control plants were sprayed in the same manner with the solvent blank. All pyridine carboxylate herbicide (component a) application rates are given as “g ae/ha” and all synthetic auxin herbicide or auxin transport inhibitor (component b) application rates are given as “g ai/ha.”
as §4

[15] = test system: Amaranthus retroflexus (pigweed, AMARE); test: Greenhouse postemergence trial AMARE; type: in vivo;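 further: Greenhouse-grown plants sprayed at second to third true leaf stage, injury rated by eye after 20-22 d versus solvent-blank sprayed controls, 0 = no injury, 100 = complete kill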
Protocol: as §5, §6, §7, §4

[16] = test system: Matricaria chamomilla (wild chamomile, MATCH); test: Greenhouse postemergence trial MATCH; type: in vivo;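 further: greenhouse plants sprayed at second to third true leaf stage, injury rated by eye 20-22 d later versus solvent-blank controls on 0–100 scale, 0 no injury, 100 complete kill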
Protocol: as §5, §6, §7, §4

[17] = test system: Triticum aestivum (spring wheat, TRZAS); type: in vivo
[18] = test system: Hordeum vulgare (spring barley, HORVS); type: in vivo
[19] = test system: Veronica persica (bird's-eye speedwell, VERPE); test: Greenhouse postemergence trial VERPE; type: in vivo; conditions: Compound B 10 g/ha (Table 39)
Protocol: as §1, §2, §3, §4

[20] = test system: Matricaria discoidea (pineapple weed, MATMT); test: Greenhouse postemergence trial MATMT; type: in vivo
Protocol: as §1, §2, §3, §4

[21] = test system: Rumex obtusifolius (broad-leaf dock, RUMOB); test: Greenhouse postemergence trial RUMOB; type: in vivo
[22] = test system: Abutilon theophrasti (velvetleaf, ABUTH); test: Greenhouse postemergence trial ABUTH; type: in vivo
Protocol: as §1, §2, §3, §4

[23] = test system: Glycine max (volunteer soybean, GLXMA); test: Greenhouse postemergence trial GLXMA; type: in vivo
Protocol: as §1, §2, §3, §4

[24] = test system: Helianthus annuus (common sunflower, HELAN); test: Greenhouse postemergence trial HELAN; type: in vivo
[25] = test system: Ipomoea hederacea (ivyleaf morningglory, IPOHE); test: Greenhouse postemergence trial IPOHE; type: in vivo
[26] = c1-3 Compound A 7.5/10/15, c4-6 Clopyralid 30/60/120, c7-9, c10-12, c13-15 A 7.5/10/15 + Clopyralid 30, 60, 120 g/ha

## O=C(O)c1nc(Cl)ccc1Cl [Clopyralid, clopyralid, reference compound]
[1]
  % visual injury: 0%
[2]; [26]
  % visual injury: 0%
[3]
  % visual injury: 0%
[4]; [26]
  % visual injury: 0%
[5]
  % visual injury: 0%
[6]; [26]
  % visual injury: 0%
[7]
  % visual injury: 35%
[8]
  % visual injury: 0%
[9]; [26]
  % visual injury: 0%

## C#CCOC(=O)c1nc(-c2ccc3cc[nH]c3c2F)c(F)c(N)c1Cl [Compound B, propargyl 4-amino-3-chloro-5-fluoro-6-(7-fluoro-1H-indol-6-yl)pyridine-2-carboxylate]
[10]; Brassica napus, post-emergence, BRSNW, applied alone, 10 g/ha, read-out: % visual injury, Obs
  plant injury at 10 g/ha: 73%
[10]; Compound B 10 g/ha (Table 36)
  BRSNW % visual injury Obs: 73%
[10]; Compound B 10 g/ha (Table 37)
  BRSNW % visual injury Obs: 73%
[10]; Compound B 10 g/ha (Table 39)
  BRSNW % visual injury Obs: 93%
[11]; Compound B 10 g/ha (Table 36)
  POLCO % visual injury Obs: 97%
[11]; Compound B 10 g/ha (Table 40)
  POLCO % visual injury Obs: 90%
[11]; Compound B 10 g/ha (Table 41)
  POLCO % visual injury Obs: 90%
[12]; Compound B 10 g/ha (Table 36)
  CIRAR % visual injury Obs: 25%
[12]; Compound B 10 g/ha (Table 37)
  CIRAR % visual injury Obs: 25%
[12]; Compound B 10 g/ha (Table 40)
  CIRAR % visual injury Obs: 55%
[12]; Compound B 10 g/ha (Table 41)
  CIRAR % visual injury Obs: 55%
[13]; Compound B 10 g/ha (Table 40)
  KCHSC % visual injury Obs: 73%
[13]; Compound B 10 g/ha (Table 41)
  KCHSC % visual injury Obs: 73%
[14]; Compound B 10 g/ha (Table 40)
  CHEAL % visual injury Obs: 93%
[14]; Compound B 10 g/ha (Table 41)
  CHEAL % visual injury Obs: 93%
[15]; AMARE, applied alone, 10 g/ha
  % visual injury, Obs: 84%
[15]; Compound B 10 g/ha (Table 36)
  AMARE % visual injury Obs: 84%
[15]; Compound B 10 g/ha (Table 40)
  AMARE % visual injury Obs: 73%
[15]; Compound B 10 g/ha (Table 41)
  AMARE % visual injury Obs: 73%
[16]; Compound B 10 g/ha (Table 39)
  MATCH % visual injury Obs: 20%
[16]; MATCH, applied alone, 10 g/ha
  % visual injury, Obs: 18%
[17]; Compound B 10 g/ha (Table 36)
  TRZAS % visual injury Obs: 0%
[17]; Compound B 10 g/ha (Table 37)
  TRZAS % visual injury Obs: 0%
[17]; TRZAS, applied alone, 10 g/ha
  % visual injury, Obs: 0%
[18]; Compound B 10 g/ha (Table 36)
  HORVS % visual injury Obs: 0%
[18]; Compound B 10 g/ha (Table 37)
  HORVS % visual injury Obs: 0%
[18]; HORVS, applied alone, 10 g/ha
  % visual injury, Obs: 0%
[2]; Compound B 10 g/ha (Table 39)
  VERHE % visual injury Obs: 70%
[19]
  VERVE % visual injury Obs: 80%
[4]; Compound B 10 g/ha (Table 38)
  PAPRH-R % visual injury Obs: 95%
[4]; Compound B 10 g/ha (Table 39)
  PAPRH-R % visual injury Obs: 95%
[6]; Compound B 10 g/ha (Table 40)
  STEME % visual injury Obs: 90%
[6]; Compound B 10 g/ha (Table 41)
  STEME % visual injury Obs: 90%
[20]; Compound B 10 g/ha (Table 38)
  MATMT % visual injury Obs: 20%
[20]; Compound B 10 g/ha (Table 39)
  MATMT % visual injury Obs: 20%
[21]; Compound B 10 g/ha (Table 40)
  RUMOB % visual injury Obs: 15%
[21]; Compound B 10 g/ha (Table 41)
  RUMOB % visual injury Obs: 15%
[22]; Compound B 10 g/ha (Table 40)
  ABUTH % visual injury Obs: 68%
[22]; Compound B 10 g/ha (Table 41)
  ABUTH % visual injury Obs: 68%
[23]; Compound B 10 g/ha (Table 40)
  GLXMA % visual injury Obs: 73%
[23]; Compound B 10 g/ha (Table 41)
  GLXMA % visual injury Obs: 73%
[24]; Compound B 10 g/ha (Table 40)
  HELAN % visual injury Obs: 100%
[24]; Compound B 10 g/ha (Table 41)
  HELAN % visual injury Obs: 100%
[25]; Compound B 10 g/ha (Table 40)
  IPOHE % visual injury Obs: 0%
[25]; Compound B 10 g/ha (Table 41)
  IPOHE % visual injury Obs: 0%
[9]; Compound B 10 g/ha (Table 40)
  VIOTR % visual injury Obs: 8%
[9]; Compound B 10 g/ha (Table 41)
  VIOTR % visual injury Obs: 8%
